Columns and labels:
Type in all cases: cell-based
HCC1569 cells = assay: Soft agar anchorage-independent growth of HCC1569 cells
Protocol: Cells were added to the regular MCF-10A or HCC1569 growth media (±AP-18, A-967079, or Trolox) plus 0.4% low-melt agarose (Sigma) and layered onto a bed of growth media plus 0.5% low-melt agarose. Cells were fed every 4 days with growth media (±AP-18, A-967079, or Trolox) plus 0.4% low-melt agarose. At the indicated times, viable colonies were stained with iodonitrotetrazolium chloride (Sigma). Colony number and colony size were determined using ImageJ. Images shown are representative of at least three independent experiments.

EL-12-58 cells = assay: Live cell number under carboplatin in EL-12-58 cells; settings: 10 μM AP-18, carboplatin 72 h
Protocol: (§1) For the measurements of live cell number and cell death under treatment with H2O2, diamide, or chemotherapies, cells were cultured on 96-well plates in the presence or absence of these drugs for indicated times and stained with 5 μM bisBenzimide H 33342 trihydrochloride (Hoechst; Sigma) and 5 μM propidium iodide (PI; Sigma) for 1 h at 37° C. Hoechst- and/or PI-positive cells were counted using a laser scanning cytometer, Acumen Cellista (TTPLabTech). Apoptotic cells induced by H2O2 treatment were measured by staining with Annexin V-Alexa Fluor® 488 conjugate (Life Technologies) and PI in Ca^2+-containing solution (10 mM HEPES pH 7.4, 140 mM NaCl; 2.5 mM CaCl2), followed by flow cytometric measurement of fluorescence using a FACSCalibur. Flow cytometry plots are representative of three independent experiments. […] Viable cells were counted using the Countless Automated Cell Counters (Thermo Fisher Scientific). […] Hoechst- and/or PI-positive areas were measured using Acumen Cellista. Apoptotic cells induced by detachment were measured by staining with 5 μM Hoechst and 5 μM of CellEvent™ Caspase-3/7 Green Detection Reagent (Thermo Fisher Scientific) for 1 h at 37° C. without enzymatic dissociation of cell clumps. Hoechst- and/or CellEvent™ Caspase-3/7 Green Detection Reagent-positive areas were measured using Acumen Cellista. […]

HCC70 = assay: Live cell number under carboplatin in HCC70 cells; settings: 10 μM AP-18; carboplatin 72 h; HCC70, very low TRPA1
Protocol: as §1

TRPA1 = target: T1, TRPA1 (Homo sapiens, UniProt O75762); assay: AITC-evoked [Ca2+]i rises in TRPA1-enriched NSCLC cells; settings: 10 μM AP-18, 30 μM AITC
T1 construct: endogenous in cells; host or cells: HCC1569 breast cancer cells (2D culture or 3D spheroids; shGFP or shTRPA1 transduced)
T1 sequence (O75762 whole entry): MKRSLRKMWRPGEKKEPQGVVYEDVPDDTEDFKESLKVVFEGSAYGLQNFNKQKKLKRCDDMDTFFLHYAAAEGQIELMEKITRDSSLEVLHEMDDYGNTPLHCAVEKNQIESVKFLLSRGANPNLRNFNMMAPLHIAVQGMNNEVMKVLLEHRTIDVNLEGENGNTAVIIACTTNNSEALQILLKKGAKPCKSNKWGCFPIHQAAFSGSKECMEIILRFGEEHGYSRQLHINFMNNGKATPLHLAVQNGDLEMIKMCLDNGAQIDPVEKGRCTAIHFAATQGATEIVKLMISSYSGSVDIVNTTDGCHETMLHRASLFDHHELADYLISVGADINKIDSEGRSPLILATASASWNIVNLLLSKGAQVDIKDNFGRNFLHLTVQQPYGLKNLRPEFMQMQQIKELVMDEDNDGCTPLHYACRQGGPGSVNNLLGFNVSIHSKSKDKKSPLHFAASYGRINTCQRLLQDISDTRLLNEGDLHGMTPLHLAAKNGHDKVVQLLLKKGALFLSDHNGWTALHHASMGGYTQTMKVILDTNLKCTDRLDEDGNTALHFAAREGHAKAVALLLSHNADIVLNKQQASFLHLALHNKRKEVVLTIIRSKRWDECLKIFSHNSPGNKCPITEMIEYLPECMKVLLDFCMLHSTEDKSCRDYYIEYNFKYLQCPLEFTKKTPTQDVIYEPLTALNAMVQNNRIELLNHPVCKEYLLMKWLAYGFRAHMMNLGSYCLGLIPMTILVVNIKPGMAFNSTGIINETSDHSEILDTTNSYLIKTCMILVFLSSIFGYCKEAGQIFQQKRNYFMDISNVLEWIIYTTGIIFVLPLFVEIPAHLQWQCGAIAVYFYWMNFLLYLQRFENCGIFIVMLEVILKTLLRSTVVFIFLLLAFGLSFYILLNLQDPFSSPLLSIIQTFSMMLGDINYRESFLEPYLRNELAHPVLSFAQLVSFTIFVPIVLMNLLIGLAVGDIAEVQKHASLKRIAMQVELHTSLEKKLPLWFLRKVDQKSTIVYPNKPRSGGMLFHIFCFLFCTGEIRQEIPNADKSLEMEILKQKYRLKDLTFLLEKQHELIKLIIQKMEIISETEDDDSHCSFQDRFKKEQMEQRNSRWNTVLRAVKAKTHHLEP
Protocol: For the measurement of [Ca^2+]i levels in cells cultured in 2D or 3D (in Matrigel), cells were stained with 3.5 μM fura-2-AM (Life Technology) in the presence of 2.5 mM probenecid (Sigma) and 0.02% Pluronic F-127 (Sigma) for 45 min at 37° C. The fura-2 fluorescence was measured in HBS solution containing 1.25 mM probenecid at 37° C. Fluorescence images of the cells were acquired through the Eclipse Ti-E microscope with ORCA-R2 cooled CCD camera and analyzed with Metafluor. The 340:380-nm ratio images were obtained on a pixel-by-pixel basis and were converted to Ca^2+ concentrations by in vivo calibration using 5 μM ionomycin as described previously (Nishida et al., Biochem. Biophys. Res. Commun., 262:350-354, 1999). 3D images are shown as one section from midstructure. For the measurement of [Ca^2+]i levels in cells cultured in suspension, cell clumps were dissociated with trypsin and [Ca^2+]i levels were determined by using Fluo-4 NW Calcium Assay Kit (Molecular Probes). Cells were stained with Fluo-4 according to the manufacturer's instructions and subjected to flow cytometric analysis (FACSCalibur) using HBS as sheath fluid. [Ca^2+]i levels determined by flow cytometry are reported as mean fluorescence intensity expressed in arbitrary units. […]

AP-18
anchorage-independent growth (number and average size of colonies) (HCC1569 cells): impaired | sensitization to carboplatin (EL-12-58 cells): sensitized | sensitization to carboplatin (HCC70): minimal to no effect | inhibition of AITC-induced [Ca2+]i rises (TRPA1): abolished

— patent US11241442B2, “Methods of use for TRP channel antagonist-based combination cancer therapies” (President and Fellows of Harvard College, priority 2017, dated 2022)
